Patent US20220218729A1, “USE OF GINSENOSIDE M1 FOR TREATING CANCER” (priority 2019, published 2022)

What was measured:
Type in all cases: cell-based
[1] = tested on: human prostate cancer PC-3 cells; assay: Annexin V/PI apoptosis flow cytometry (PC-3); conditions: M1 40 μM, 24 h, vs vehicle; FIG. 9
Method: (§1) Human malignant melanoma A375.S2 cell line was obtained from the American Type Culture Collection (ATCC, USA). A375.S2 cells were grown in minimum essential medium supplemented with 10% fetal bovine serum, 100 U/mL of penicillin, and 100 μg/mL of streptomycin (Life Technologies, USA). PC-3 cells (hormone-independent human prostate cancer cells) were cultured in Ham's F12K medium supplemented with 7% fetal bovine serum, 100 U/mL of penicillin, and 100 μg/mL of streptomycin (Life Technologies, USA). Cells were cultured at 37° C. in a 5% CO2 incubator.
(§2) Furthermore, to investigate mechanisms underlying the apoptosis-inducing activity of M1, we detected Annexin V/PI double staining by flow cytometry and apoptosis related protein expression by Western blot. PC-3 cells were plate 2.5×10^5 per 6-well plates, and incubated with M1 (40 μM) or vehicle for 24 h. The cells were harvested by gently trypsinizing and wash with ice-PBS twice, then stained with Annexin V-FITC/PI apoptosis detection kit (BD Biosciences, USA) according to the manufacturer's instructions and measured using a flow cytometer within 1 hour. […] The data are expressed as the means±SEM for three separate experiments. ***p<0.005. (One-way ANOVA and subsequent Scheffe's test).

[2] = tested on: human malignant melanoma A375.S2 cells; assay: Annexin V/PI apoptosis flow cytometry (A375.S2); conditions: 24 h, FIG. 4
Method: as §1
A375.S2 cells were seeded at 2.5×10^5 into 6-well plates, and incubated with M1 (40 μM), cisplatin (50 μM) or vehicle for 24 h. To perform apoptosis using an Annexin V-FITC/PI apoptosis detection kit (BD Biosciences, USA) according to the manufacturer's instructions, and then analyzed by flow cytometry (BD Biosciences).
(§3) To further investigate mechanism of action of M1, we used Annexin V/PI double staining by flow cytometry and crucial protein expression by Western blot analysis to measured targeting hallmarks of apoptosis.

[3] = tested on: human malignant melanoma A375.S2 cells; assay: Colony formation assay (A375.S2); conditions: M1 10, 20 and 40 μM, 10 days; FIG. 2
Method: as §1
(§4) Plate 500 cells per well into 6-well plates and incubated with different M1 concentrations (10, 20, and 40 μM) or vehicle for 10 days. Cells were fixed in 4% paraformaldehyde after washing with cold PBS twice, and stained with 0.5% crystal violet 10 min at room temperature.
To investigates the effect of M1 on the reduction of colony formation ability of melanoma cells, A375. S2 cells were subjected to colony formation assay with various concentration of M1.

[4] = tested on: human prostate cancer PC-3 cells; assay: Wound healing assay (PC-3); conditions: M1 20 or 40 μM, 24 h, vs vehicle; FIG. 8
Method: as §1
(§5) Cells were seeded at 6×10^5 into 6-well plates and incubated for 24 h. Then used a sterile 200-μl pipette tip to create a straight gap of constant width, and each well was washed with sterile PBS. Next, the cells were incubated with various concentrations of M1 (10, 20, and 40 μM) or vehicle. The cells were photographed at 0 and 24 h under a microscope at 100× magnification.
Next, we performed whether M1 reduces the migration ability by wound healing assay in PC-3 cells. Cells were seeded at 6×10^5 per 6-well plates in culture medium and were grown overnight at 37° C. in a 5% CO2 incubator. Each well was scratched with sterile 200-μl pipette tip in the cell monolayer, and washed with sterile PBS twice. […] The data are expressed as the means±SEM for three separate experiments. *p<0.05, ***p<0.005. […]

[5] = tested on: human malignant melanoma A375.S2 cells; assay: Western blot of apoptosis-related proteins (A375.S2); conditions: A375.S2, M1 10, 20 and 40 μM, 24 h, FIGS. 5A, 5B
Method: as §1
(§6) Plate 4×10^5 cells per well into 6-cm dish, and incubated with different concentrations of M1 (10, 20 and 40 μM), cisplatin (50 μM) or vehicle for 24 h. The cells were exacted by disruption in RIPA buffer (Sigma-Aldrich, Germany) in the presence of protease inhibitor cocktail. Each protein sample was run on a 12% SDS-PAGE gel and transferred to PVDF membrane, which was then incubated for 1 h at room temperature in blocking buffer and then overnight at 4° C. with primary antibodies against caspase-3, caspase-9 (Cell Signaling Technology, USA), Bax, Bcl-2 or β-actin (Santa Cruz, USA). The membrane was incubated for 1 h at room temperature with HRP-conjugated secondary antibodies. The proteins were detected using enhanced chemiluminescence reagent (GE, UK).
as §3

[6] = tested on: human prostate cancer PC-3 cells; assay: Western blot of apoptosis-related proteins (PC-3); conditions: PC-3, M1 10, 20 and 40 μM, 24 h, FIGS. 10A, 10B
Method: as §1, §6, §2

[7] = tested on: human prostate cancer PC-3 cells; assay: Colony formation assay (PC-3); conditions: M1 10, 20 and 40 μM, 10 days, dose-dependent, vs vehicle; FIG. 7
Method: as §1, §4
Seeding 500 cells per 6-well plates and treated for 10 days with different concentrations of M1 (10, 20, and 40 μM) or vehicle. The cells were fixed in 4% paraformaldehyde for 15 min, after washing with cold PBS twice, and stained with 0.5% crystal violet 10 min at room temperature. […] The data are expressed as the means±SEM for three separate experiments. *p<0.05, ***p<0.005. (One-way ANOVA and subsequent Scheffe's test).

[8] = tested on: human prostate cancer PC-3 cells; assay: Cell viability, trypan blue exclusion (PC-3); conditions: M1 10, 20 and 40 μM, 24 h, dose-dependent; FIG. 6
Method: as §1
(§7) Seeding cells (2.5×10^5 cells/well) in 6-well plates and incubated with different concentrations of M1 (10, 20 and 40 μM), cisplatin (50 μM) or vehicle for 24 h. Cells were detached by trypsinization and the cell numbers were counted by trypan blue exclusion method.
Plate human prostatic cancer cell line PC-3 2.5×10^5 per 6-well plates and cultured in Ham's F12K medium supplemented with 7% fetal bovine serum, 100 U/mL of penicillin, and 100 μg/mL of streptomycin (Life Technologies, USA). Cells were cultured overnight at 37° C. in a 5% CO2 incubator, and then treated with different concentrations of M1 (10, 20 and 40 μM) or vehicle for 24 h, and the cell numbers were counted by trypan blue exclusion method. […] The data are expressed as the means±SEM for three separate experiments. *p<0.05, **p<0.01. […]

[9] = tested on: human malignant melanoma A375.S2 cells; assay: Wound healing assay (A375.S2); conditions: M1 20 or 40 μM, 24 h, vs control; FIG. 3
Method: as §1, §5
To investigates the effect of M1 on the inhibition of migration ability of melanoma cells, A375.S2 cells were subjected to the wound healing assay with various concentration of M1.

[10] = tested on: human malignant melanoma A375.S2 cells; assay: Cell viability, trypan blue exclusion (A375.S2); conditions: 24 h, FIG. 1
Method: as §1, §7
To investigates the effect of M1 on the inhibition of human malignant melanoma cell growth, A375 cells were cultured with various concentration of M1.

Structure (SMILES): CC(C)=CCC[C@](C)(O[C@@H]1OC(CO)[C@@H](O)[C@@H](O)C1O)[C@H]1CC[C@]2(C)C1[C@H](O)CC1[C@@]3(C)CC[C@H](O)C(C)(C)C3CC[C@]12C (stereo partly drawn) [M1, 20-O-β-D-glucopyranosyl-20(S)-protopanaxadiol]
- percentage of PC-3 cells with Annexin V/PI double staining [1]: greatly increased the percentage
- percentage of A375.S2 cells with Annexin V/PI double staining ([2]; M1 40 μM): greatly increased the percentage
- numbers of colonies of A375.S2 cells [3]: reduced dose-dependently
- cell migration ability of PC-3 cells [4]: significantly decreased the cell migration ability
- Bcl-2 protein expression ([5]; dose-dependent): decrease
- pro-caspase-3 protein expression ([5]; dose-dependent): decrease
- pro-caspase-9 protein expression ([5]; dose-dependent): decrease
- levels of caspase-3 [5]: significantly increased
- levels of caspase-9 [5]: significantly increased
- Bax/Bc1-2 ratio ([6]; dose-dependent): increased
- protein levels of caspase-9 ([6]; dose-dependent): increased
- pro-caspase-3 protein expression [6]: significantly decreased
- pro-caspase-9 protein expression [6]: significantly decreased
- colony formation ability of PC-3 cells [7]: inhibited the colony formation ability
- cell numbers of PC-3 cells [8]: significantly decrease cell numbers
- cell migration ability of A375.S2 cells [9]: markedly decreased the cell migration ability
- cell numbers of A375.S2 cells ([10]; M1 10, 20 and 40 μM, vs control): decreased the cell numbers

Structure (SMILES): N.N.[Cl][Pt][Cl] [cisplatin, reference compound]
- percentage of A375.S2 cells with Annexin V/PI double staining ([2]; cisplatin 50 μM): greatly increased the percentage
- cell numbers of A375.S2 cells ([10]; cisplatin 50 μM, positive control): decreased the cell numbers
